In US20190077774A1, “PEROXISOME PROLIFERATOR-ACTIVATED RECEPTOR AGONISTS” (City of Hope, priority 2017, published 2019):

What was measured:
[1] = tested on: PPARα target genes in the liver; assay: Liver gene expression of PPARα targets in treated mice (RT-qPCR); format: in vivo
From the text: FIG. 6. […] Data in same order as triglyceride suppression (FIG. 5). apo CIII and LPL expression inversely correlate with triglyceride suppression for many, but not all, compounds. ACOX1 and Cyp4A3 expression correlate with triglyceride suppression for many, but not all, compounds.
The following oligonucleotide primers were used to amplify insertion sequences: for PPARα, FW-5′-[…]-3′ (SEQ ID NO:1) and Rev-5′-[…]-3′ (SEQ ID NO:2); for RXRα, FW-5′ […]-3′ (SEQ ID NO:3) and Rev-5′-[…]-3′ (SEQ ID NO:4). It has been well established that PPARα agonists fibrates reduce plasma triglycerides largely by inducing hepatic PPARα-mediated transcription of key proteins in hepatic long-chain fatty acid […], such as CPT1 (carnitine palmitoyltransferase-1). DY121 promoted the expression of PPARα, CPT1, and LPL involved in free fatty acid β-oxidation. The mRNA expressions of the PPARα-regulated genes CPT-Ia and ACADM were measured by real-time quantitative-PCR (RT-qPCR). […] A structural specificity of DY121 may be responsible for this regulation. PPARα is predominantly expressed in liver. PPARα modulates fatty acid catabolism in the liver. We next measured the mRNA expression of PPARα target genes in the liver. PPARα agonists exert their actions and attributed to the activation of PPARα which in turn effects an increase in LPL (lipoprotein lipase) gene expression and transrepression of apoC-III (apolipoprotein C-III). Activation of PPARα by its modulators can increase PPARα levels and activate PPARα pathways, leading to increased fatty-acid oxidation and reduction of oxidative stress. DY121 and its analogs induced the expression of PPARα-regulated genes involved in lipid, glucose, and cholesterol metabolism, such as ACOX1 (acyl-CoA oxidase) and Cyp4A3 (cytochrome P450 gene subfamily). Members of the CYP4A gene subfamily catalyze the oxygenation of biologically important fatty acids.
Next, we would like to investigate the therapeutic potential of DY121 to see if it could be candidate for treating NAFLD/NASH. Note that the pathogenesis of NASH has not yet been fully elucidated so far; however, the ‘two-hit’ theory is widely accepted. The first hit is the accumulation of fatty acids in the liver to cause steatosis. […] The newly produced PPARα agonist DY121 and its analogs, as well as WY100=WY14643 and GW3 (GW7647), were evaluated in C57Bl/6J female mice for their ability to alter serum triglyceride, liver gene expression, and glucose. Fibric acid derivatives (100 mg/kg/day) was used as a control, WY100 (WY14, 643, 100 mg/kg/day), GW3 (GW7647-positive control, 3 mg/kg/day), DY121 (˜3 mg/kg/day), respectively. […]

[2] = Body weight and food intake of treated mice; format: in vivo
Protocol: Next, we would like to investigate the therapeutic potential of DY121 to see if it could be candidate for treating NAFLD/NASH. Note that the pathogenesis of NASH has not yet been fully elucidated so far; however, the ‘two-hit’ theory is widely accepted. The first hit is the accumulation of fatty acids in the liver to cause steatosis. […] The newly produced PPARα agonist DY121 and its analogs, as well as WY100=WY14643 and GW3 (GW7647), were evaluated in C57Bl/6J female mice for their ability to alter serum triglyceride, liver gene expression, and glucose. Fibric acid derivatives (100 mg/kg/day) was used as a control, WY100 (WY14, 643, 100 mg/kg/day), GW3 (GW7647-positive control, 3 mg/kg/day), DY121 (˜3 mg/kg/day), respectively. DY series compounds and controls administered once to C57Bl/6J female mice at 8 weeks of age. Mice were treated at 3 mg/kg for all compounds except WY14643 (100 mg/kg).

Question: Which “expression of PPARα, CPT1, and LPL” value ([1]; RT-qPCR) does the source give for `COc1ccc(Cn2c(CCCc3ccc(OC(C)(C)C(=O)O)cc3)nn(Cc3ccc(C)cc3)c2=O)cc1` [10a, 2-(4-{3-[4-(4-Methoxy-benzyl)-1-(4-methyl-benzyl)-5-oxo-4,5-dihydro-1H[1,2,4]triazol-3-yl]-propyl}-phenoxy)-2-methyl-propionic acid] here?
Answer: Its value is “promoted”.

Question: What about the “expression of PPARα-regulated genes such as ACOX1 and Cyp4A3” value ([1]; RT-qPCR) of the same compound?
Answer: Its value is “induced”.

Question: What about the “liver CPT-Ia expression” value ([1]; chronic (>3 d) treatment (FIG. 17)) of the same compound?
Answer: The value was “upregulated”.

Question: What about the LPL expression ([1]; liver, chronic treatment (FIG. 11)) of the same compound?
Answer: The LPL expression was “enhanced expression of LPL”.

Question: And the ACOX1 expression ([1]; liver, chronic treatment (FIG. 12))?
Answer: The ACOX1 expression was “enhanced by PPARα activation, most consistently”.

Question: And the Cyp4A3 expression ([1]; liver, chronic treatment (FIG. 13))?
Answer: Its Cyp4A3 expression is “consistently”.

Question: And the apoCIII expression ([1]; liver, chronic treatment up to 7 days (FIG. 11))?
Answer: The apoCIII expression was “significantly suppressed expression of apoCIII at each time point”.

Question: And the ACADM expression ([1]; time course (FIG. 18))?
Answer: Its ACADM expression is “upregulates”.

Question: What about the “CYP4A3 mRNA in the liver” value ([1]; wild-type and PPARα knockout mice) of the same compound?
Answer: The value was “enhanced levels of CYP4A3 mRNA in the liver of wild-type but not PPARα knockout mice”.

Question: What about the body weight ([2]; 24 h vs 72 h (FIG. 8)) of the same compound?
Answer: Its body weight is “unaffected”.

Question: And the “body weights and food intake” value ([2]; vs control group)?
Answer: The value was “no significant differences”.
